{"source": "paper PMC9296036", "about": "“A peptide interfering with the dimerization of oncogenic KITENIN protein and its stability suppresses colorectal tumour progression” (Clinical and Translational Medicine, 2022)", "system": "CT-26/iRFP/KITENIN-V5 liver metastases", "experiment": "Intrasplenic hepatic metastasis model, CT-26/iRFP/KITENIN-V5 cells in syngeneic mice", "type": "in vivo, mouse", "method": "For hepatic metastasis analysis, 5‐ to 6‐week‐old Balb/c mice were obtained from OrientBio, Inc. (Seongnam, Korea) and housed in metal cages with free access to water and food. A syngeneic mouse model of colorectal liver metastasis was established by an infusion of tumour cells into the portal system via intrasplenic injection.[27] In brief, CT‐26/KITENIN‐iRFP‐expressing cells (2 × 10^5 cells/mouse) were injected into the spleen. Splenectomy was performed 15 min after an injection of CT‐26 cells. Mice were randomly assigned to two groups: scrambled peptide and KDIP (1, 5 mg/kg). Each peptide was given via intravenous injection six times for 2 weeks after 7 days of inoculation of tumour cells. Metastatic tumour nodules in the liver with a diameter of >1.0 mm were counted using a microscope, and a metastasis score was allocated based on nodule size as follows: 0 (no gross metastasis), 1 (tumour size >1 mm), 2 (tumour size 1 >5 mm) and 3 (tumour size >10 mm). The metastasis score was obtained by multiplying the number and the score of nodules. Fluorescence images of liver nodules expressing iRFP were taken using a Fluorescence‐labelled Organism Bioimaging Instrument (Cellgentek, Korea) and total fluorescence emitted from liver nodules was measured and compared between groups.\nEffect of KAI1 C‐terminal interacting tetraspanin (KITENIN) dimerization‐interfering peptide (KDIP) on tumour growth and metastasis in in vivo mouse model of colorectal cancer (CRC). (A) Treatment with KDIP decreases cell invasion of KITENIN‐overexpressing CT‐26 cells. Cell invasion assay was performed in CT‐26 cells transfected with KITENIN and treated with scr‐peptide or KDIP (1 μM) (upper panel). […] For the evaluation of metastasis, total fluorescence emitted from liver nodules expressing iRFP was measured and counted (left panel) or metastatic tumour growth was counted as nodules that migrated to the surface of the liver, and a metastatic score was obtained by multiplying it with size (middle panel). Metastatic score or total fluorescence is represented as mean ± SEM. […]", "key": {"[1]": {"settings": "KDIP 5 mg/kg versus scrambled peptide, immunoblot densitometry, n = 6"}}, "note": "Ends that are not written are not given here.", "data": [{"sequence": "YARVRRRGPRRWRLVSDEAV [KDIP]", "values": [{"measurement": "fluorescence of the hepatic nodule (liver metastasis, in words)", "setting": "KDIP 5 mg/kg intravenously for 2 weeks, compared with scramble peptide group", "result": "significantly reduced"}, {"measurement": "KITENIN level in metastatic liver nodules (in words)", "setting": "[1]", "result": "significantly decreased"}, {"measurement": "protein level of Myo10 in metastatic liver nodules (in words)", "setting": "[1]", "result": "significantly decreased"}]}]}
